Consider eight compounds from PubChem BioAssay (NCI).

Structures are written as SMILES.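 Where inhibition never reached the appropriate level, the endpoint shown equals the highest concentration tested. Otherwise, values were interpolated linearly from a five-concentration, 48-hour dose response in 96-well plates. GI50 is the concentration that inhibits growth by half. TGI: total growth inhibition.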

Holding throughout (assay): DTP human tumour cell line panel, 48 h
Assay [1] concerns MOLT-4 leukemia.
For assay [2], the system named is NCI/ADR-RES ovarian.
Assay [3] deals with OVCAR-8 ovarian.
Assay [4] concerns SF-295 CNS.
Assay [5] relates to SK-MEL-2 melanoma.
Assay [6] concerns SK-MEL-5 melanoma.
Assay [7] has as its system SNB-75 CNS.
For assay [8], the system named is SR leukemia.
The subject of assay [9] is TK-10 renal.
The subject of assay [10] is U251 CNS.

By GI50 is commonly meant the concentration at which growth is held to half of that of the control. As a reminder, the TGI is the concentration giving total growth inhibition. For `N#CC1C=Cc2c(ccc3ccccc23)N1C(=O)c1ccccc1` (centres undefined), the GI50 was 0.421 µM in assay [1]; 0.187 µM in [2]; 0.461 µM in assay [3]; 0.0268 µM in assay [4]; 4.61 µM in [5]; 0.132 µM in [6]. The GI50 is 0.226 µM in assay [7], 0.1 µM in assay [8], 3.78 µM in assay [9] and 0.387 µM in [10]. The TGI in [1] was > 100 µM; in [3], > 100 µM; in assay [4], 0.0747 µM; in assay [5], > 60.7 µM; in assay [6], > 42.5 µM; in assay [7] it was 63.8 µM. For the same compound, the concentration for total growth inhibition (TGI) in [9] was > 65.8 µM; in assay [10] it was > 81.6 µM.
For `Cc1cc(Nc2cc(N)ncn2)c(=O)n2c1C(=O)NC21CCCCC1`, the GI50 in [1] is > 100 µM; in [2] it was > 100 µM; in assay [3], > 100 µM; in assay [4], 46.8 µM; in assay [5], 58.2 µM; in assay [6], > 100 µM. The GI50 in [7] is 9.32 µM; in assay [8] it was > 100 µM; in assay [9] it was > 100 µM; in [10] it was 83.7 µM. Also, the total growth inhibition concentration (TGI) in assay [1], in assay [2], in [3], in [4], in [5] and in assay [6] was > 100 µM throughout. Besides, the TGI in [7], in [8], in assay [9] and in assay [10] was > 100 µM in each case.
For `CC#Cc1nc(Nc2cc(C)[nH]n2)c2ccccc2n1`, the GI50 is 5.33 µM in assay [1]; 6.63 µM in [2]; 5.05 µM in assay [3]; 12.3 µM in assay [4]; 2.92 µM in assay [5]; 1.76 µM in assay [6]. Besides, the GI50 is 1.48 µM in [7], 5.07 µM in [8], 3.57 µM in assay [9] and 11.3 µM in [10]. Further, the TGI was > 100 µM in assay [1]; > 100 µM in assay [2]; 37.3 µM in assay [3]; 34.5 µM in assay [4]; 8.38 µM in assay [5]; 3.61 µM in assay [6]. Besides, the TGI in [7] was 15.4 µM; in assay [8], > 100 µM; in [9] it was 21.2 µM; in assay [10], 27.4 µM.
For `COc1ccc(Cn2cc3c(c2-c2cc(OC)c(OC)c(OC)c2)CCc2cnoc2-3)cc1`, the GI50 was 0.468 µM in assay [1]; 0.242 µM in assay [2]; 0.485 µM in assay [3]; 0.129 µM in assay [4]; 3.24 µM in assay [5]; 0.276 µM in [6]. In addition, the GI50 in assay [7] was 0.147 µM; in assay [8], 0.175 µM; in assay [9] it was 0.842 µM; in assay [10], 0.393 µM. Also, the TGI is > 100 µM in [1]; > 100 µM in assay [2]; > 100 µM in [3]; 0.821 µM in [4]; > 100 µM in assay [5]; 4.99 µM in assay [6]. The TGI was 0.746 µM in [7], 1.42 µM in assay [8], > 100 µM in [9] and > 100 µM in assay [10].
Turning to `CCCCCCCCCCCCCCCC1=NC(C)(C)CN1C(C)C`, the GI50 in assay [1] was 1.16 µM; in [2], 1.78 µM; in [3], 1.72 µM; in assay [4], 1.74 µM; in assay [5] it was 1.63 µM; in assay [6], 1.68 µM. In addition, the GI50 is 1.47 µM in assay [7], 0.254 µM in assay [8], 1.44 µM in assay [9] and 1.51 µM in assay [10]. Also, the TGI in [1] was 2.73 µM; in assay [2] it was 4.33 µM; in assay [3], 3.58 µM; in assay [4] it was 3.3 µM; in assay [5], 3.07 µM; in assay [6], 3.04 µM. Further, the TGI in assay [7] is 2.94 µM; in [8], 1.36 µM; in assay [9] it was 2.74 µM; in [10] it was 2.84 µM.
In the case of `Oc1c(CN2CCN(c3ccccc3)CC2)cc(Br)c2cccnc12`, the TGI in assay [1] was 6.15 µM; in assay [2], > 100 µM; in assay [3] it was > 100 µM; in [4] it was > 95 µM; in [5], 42 µM; in assay [7] it was 18.1 µM. Further, the TGI in assay [8] was 2.25 µM; in [9], > 100 µM; in [10], 7.87 µM.
As to `C/C(=N\NC(=S)N(C)C)c1ccccn1`, the 50% growth inhibitory concentration (GI50) in assay [1] is 0.000297 µM; in assay [2] it was 0.000321 µM; in assay [3], 0.00318 µM; in assay [4] it was 0.012 µM; in [5] it was 0.624 µM; in [6] it was 0.00143 µM. Further, the GI50 in assay [8] is 0.00132 µM; in [9], 0.00279 µM; in assay [10], 0.00245 µM. In addition, the TGI turned out to be 2.12 µM in assay [1]; 2.31 µM in assay [2]; 10.8 µM in assay [3]; 13.1 µM in [4]; 27.2 µM in assay [5]; 14.4 µM in [7]. Besides, the TGI in assay [9] amounted to 10.7 µM; in assay [10], 6.73 µM.
For the compound `O=C(CCc1ccc(O)cc1)N/N=C/c1cc(Br)ccc1O`, the GI50 in assay [1] is 2.41 µM; in assay [2], 2.34 µM; in [3] it was 3.7 µM; in [4] it was 3.25 µM; in assay [5], 5.28 µM; in assay [6], 3.4 µM. Further, the GI50 in assay [7] was 5.25 µM; in [8] it was 2.52 µM; in [9], 7.35 µM; in assay [10], 3.2 µM. For the same compound, the TGI in assay [1] was 11.2 µM; in assay [2], > 100 µM; in assay [3], > 100 µM; in [4], > 100 µM; in assay [5], 38.3 µM; in assay [6], 18.1 µM. Also, the TGI is > 100 µM in assay [7], 9.66 µM in assay [8], > 100 µM in assay [9] and > 100 µM in assay [10].
